The subject of assay [1] is Balamuthia mandrillaris trophozoites. The experiment in a line: Activity against Balamuthia mandrillaris trophozoites. The conditions noted are these: Balamuthia mandrillaris, read-out: Balamuthia mandrillaris IC50. The assay is classed as cell-based. As for the experimental part:
Balamuthia mandrillaris trophozoites were thawed and grown in 10 ml of BM-3 medium. […] After autoclaving, complete BM-3 media was produced by the addition of 10% fetal bovine serum and 125 μg of penicillin/streptomycin antibiotics. The table describes all of the compounds and the activity against Balamuthia trophozoites compared to the activity for select Acanthamoeba trophozoites shown in Table 5.

Assay [2] relates to Acanthamoeba castellanii trophozoites. The experiment in a line: Activity against Acanthamoeba castellanii trophozoites. The class given is cell-based. On the procedure: Two Acanthamoeba species (Acanthamoeba castellanii—ATCC50370 and Acanthamoeba culbertsoni—ATCC30171) were bought from the American Type Culture Collection (ATCC) and one species (Acanthamoeba healyi) was donated from the Centers for Disease Control and Prevention (CDC) for our experimentations. Trophozoites were thawed and grown in 10 mL of a nutrient rich Peptose-Glucose (PG) media. The PG media composition is 83.26 mM Glucose (15 g/L), Protease Peptone (15 g/L, yeast extract is manufactured under controlled conditions to retain its vitamin content and other nutritive values such as free amino acids, no other composition information given), 2.2 mM KH2PO4 (300 mg/L), 2.97 μM Thiamine (1 mg/L), 99.86 μM L-methionine (14.9 mg/L), 4.6 μM Vitamin B12 (83.3 μl of 0.1 mg/mL stock/L) and 68 μM Biotin (83.3 μl of 0.2 mg/mL stock/L). […] One mL/L of the salt solution was added to the media stock prior to autoclaving. All reagents were purchased from Sigma Aldrich except the Glucose which was purchased from Alfa Aesar. The cell pellet was resuspended in a final volume of 10 mL of PG media, cultured in 75 cm^2 coming tissue culture flasks and incubated at 27° C. PG was supplemented with 125 μg of penicillin/streptomycin. Sub-culturing occurred twice per week to allow the continued growth and development of the Acanthamoeba trophozoites. […]

[3] abbreviates: trophozoites, n = 2, Table 6, read-out: Acanthamoeba castellanii IC50.
The mark [4] stands for this setting: read-out: Acanthamoeba castellanii IC50.

Among the data in patent US12433872B2, “Treatment of Acanthamoeba or Balamuthia trophozoites and/or cysts” (GEORGIA STATE UNIVERSITY RESEARCH FOUNDATION, INC., priority 2018, dated 2025) are IC50 values, retold here.

Each structure is given as a SMILES string. Like-named read-outs stand apart in the source and are kept apart here. Some results are limits rather than exact numbers.

Turning to `CC(C)NC(=N)c1ccc2nc(-c3ccc(Oc4ccc(-c5nc6ccc(C(=N)NC(C)C)cc6[nH]5)c(F)c4)c(C#N)c3)[nH]c2c1` [Y, 2-(3-Cyano-4-(3-fluoro-4-(6-(N-isopropylcarbamimidoyl)-1H-benzo[d]imidazol-2-yl)phenoxy)phenyl)-N-isopropyl-1H-benzo[d]imidazole-6-carboximidamide], the IC50 (commonly the concentration needed to halve the response being measured) in assay [1] (trophozoites, n = 2) stood at 0.09 µM; in assay [2] (setting [3]), 0.95 µM.
On the same counts, the results for `N=C(N)c1ccc(-c2ccc(C(=O)Nc3cccc(C(=N)N)c3)cc2)cc1` [Compound AV] are 0.68 µM and 0.37 µM.
On to `N=C(C1=NCCCN1)c1ccc2nc(-c3ccc4nc(-c5ccccc5)[nH]c4c3)[nH]c2c1` [AL, (2′-phenyl-1H,3′H-[2,5′-bibenzo[d]imidazol]-6-yl)(1,4,5,6-tetrahydropyrimidin-2-yl)methanimine], for which the IC50 in assay [1] (trophozoites, n = 2) was found to be 0.28 µM; in assay [2] (setting [3]), 2.33 µM.
Regarding `CC(C)NC(=N)c1ccc2nc(-c3ccc(N(c4ccccc4)c4ccc(-c5nc6ccc(C(=N)NC(C)C)cc6[nH]5)cc4)cc3)[nH]c2c1` [BG], the IC50 in assay [1] (trophozoites, n = 2) stood at 0.47 µM; in assay [2] (setting [3]), 3.1 µM.
For `CC(C)NC(=N)c1ccc2nc(-c3ccc(Oc4ccc(-c5nc6ccc(C(=N)NC(C)C)cc6[nH]5)c(Cl)c4)c(Cl)c3)[nH]c2c1` [AD, 2-(2-Chloro-4-(2-chloro-4-(6-(N-isopropylcarbamimidoyl)-1H-benzo[d]imidazol-2-yl)phenoxy)phenyl)-N-isopropyl-1H-benzo[d]imidazole-6-carboximidamide], the IC50 is 0.13 µM in assay [1] (trophozoites, n = 2) and 0.83 µM in assay [2] (setting [3]).
On the same counts, the results for `N=C(c1ccc2nc(-c3ccc(Oc4ccc(-c5nc6ccc(C(=N)N7CCOCC7)cc6[nH]5)cc4)cc3)[nH]c2c1)N1CCOCC1` [BE] are 0.38 µM and 4.91 µM.
Turning to `CC(C)NC(=N)c1ccc2nc(-c3ccc(Oc4ccc(-c5nc6ccc(C(=N)NC(C)C)cc6[nH]5)cc4I)cc3)[nH]c2c1` [AE, 2-(3-Iodo-4-(4-(6-(N-isopropylcarbamimidoyl)-1H-benzo[d]imidazol-2-yl)phenoxy)phenyl)-N-isopropyl-1H-benzo[d]imidazole-6-carboximidamide], the 50% inhibitory concentration (IC50) in assay [1] (trophozoites, n = 2) came out at 0.38 µM; in assay [2] (setting [3]), 1.09 µM.
On the same counts, the results for `COc1ccc(-c2nc3ccc(-c4nc5ccc(C(=N)C6=NCCCN6)cc5[nH]4)cc3[nH]2)cc1O` [AN, 5-(6-(imino(1,4,5,6-tetrahydropyrimidin-2-yl)methyl)-1H,3′H-[2,5′-bibenzo[d]imidazol]-2′-yl)-2-methoxyphenol] are 0.23 µM and 0.48 µM.
On the same counts, the results for `CC(C)NC(=N)c1ccc2nc(-c3ccc(Oc4ccc(-c5nc6ccc(C(=N)NC(C)C)cc6[nH]5)c(F)c4)c(Br)c3)[nH]c2c1` [Compound AF, 2-(3-Bromo-4-(3-fluoro-4-(6-(N-isopropylcarbamimidoyl)-1H-benzo[d]imidazol-2-yl)phenoxy)phenyl)-N-isopropyl-1H-benzo[d]imidazole-6-carboximidamide] are 0.13 µM and 0.75 µM.
On the same counts, the results for `COc1cc(-c2nc3ccc(C(=N)NC(C)C)cc3[nH]2)ccc1Oc1ccc(-c2nc3ccc(C(=N)NC(C)C)cc3[nH]2)cc1C#N` [Compound U, 2-(3-Cyano-4-(4-(6-(N-isopropylcarbamimidoyl)-1H-benzo[d]imidazol-2-yl)-2-methoxyphenoxy)phenyl)-N-isopropyl-1H-benzo[d]imidazole-6-carboximidamide] are 0.15 µM and 1.44 µM.
`N=C(N)c1ccc2nc(-c3ccc4nc(-c5ccc(C(N)=O)cc5)[nH]c4c3)[nH]c2c1` [AP, 4-(6-carbamimidoyl-1H,3′H-[2,5′-bibenzo[d]imidazol]-2′-yl)benzamide]: the IC50 in assay [1] came to 0.4 µM; in assay [2] (setting [4]) it was 47.6 µM.
On the same counts, the results for `N=C(N)c1ccc(-c2ccc(-c3nc4ccc(C(=N)N)cc4[nH]3)cc2)cc1` [Compound AX] are 0.35 µM and 6.05 µM.
For the compound `CC(C)NC(=N)c1ccc2nc(-c3ccc(N(C)c4ccc(-c5nc6ccc(C(=N)NC(C)C)cc6[nH]5)cc4)cc3)[nH]c2c1` [BA], the IC50 amounted to 0.05 µM in assay [1] (trophozoites, n = 2) and 1.7 µM in assay [2] (setting [3]).
For `CC(C)NC(=N)c1ccc2nc(-c3ccc(Oc4ccc(-c5nc6ccc(C(=N)NC(C)C)cc6[nH]5)cc4C#N)cc3)[nH]c2c1` [V, 2-(3-Cyano-4-(4-(6-(N-isopropylcarbamimidoyl)-1H-benzo[d]imidazol-2-yl)phenoxy)phenyl)-N-isopropyl-1H-benzo[d]imidazole-6-carboximidamide], the IC50 in assay [1] (trophozoites, n = 2) is 0.07 µM; in assay [2] (setting [3]), 1.03 µM.
On the same counts, the results for `N=C(NC1CCC1)c1ccc2nc(-c3ccc4nc(-c5cccc(O)c5)[nH]c4c3)[nH]c2c1` [Compound AT] are 0.4 µM and 1.25 µM.
On the same counts, the results for `COc1ccc(-c2nc3ccc(-c4nc5ccc(C(=N)NC6CCC6)cc5[nH]4)cc3[nH]2)cc1O` [Compound AS] are 0.28 µM and 2.4 µM.
Turning to `CC(C)NC(=N)c1ccc2nc(-c3ccc(Oc4ccc(-c5nc6ccc(C(=N)NC(C)C)cc6[nH]5)c(C(F)(F)F)c4)cc3)[nH]c2c1` [Compound AH], the IC50 was 0.09 µM in assay [1] and 1.89 µM in assay [2] (setting [4]).
Take `N=C(NC1CCCC1)c1ccc2nc(-c3ccc(Oc4ccc(-c5nc6ccc(C(=N)NC7CCCC7)cc6[nH]5)cc4)cc3)[nH]c2c1` [BB]: the IC50 in assay [1] (trophozoites, n = 2) was 0.1 µM; in assay [2] (setting [3]), 2.99 µM.
On the same counts, the results for `N=C(N)c1ccc(OCc2ccc(-c3ccc(C(=N)N)cc3)cc2)cc1` [Compound AU] are 0.36 µM and 2.44 µM.
For `CC(C)NC(=N)c1ccc2nc(-c3ccc(CCc4ccc(-c5nc6ccc(C(=N)NC(C)C)cc6[nH]5)cc4)cc3)[nH]c2c1` [BC], in that order: 0.25 µM and more than 67.8 µM.
`CN(C)CCOc1cccc(-c2nc3ccc(-c4nc5ccc(C(=N)N)cc5[nH]4)cc3[nH]2)c1` [AQ, 2′-(3-(2-(dimethylamino)ethoxy)phenyl)-1H,3′H-[2,5-bibenzo[d]imidazole]-6-carboximidamide]: the IC50 in assay [1] is 0.42 µM; in assay [2] (setting [4]), 13.2 µM.
Turning to `COc1ccc(-c2nc3ccc(-c4nc5ccc(C6=NCCCCN6)cc5[nH]4)cc3[nH]2)cc1O` [AM, 2-methoxy-5-(6-(4,5,6,7-tetrahydro-1H-1,3-diazepin-2-yl)-1H,3′H-[2,5′-bibenzo[d]imidazol]-2′-yl)phenol], the IC50 in assay [1] (trophozoites, n = 2) is 0.13 µM; in assay [2] (setting [3]) it was 1.93 µM.
On the same counts, the results for `CC(C)NC(=N)c1ccc2nc(-c3ccc(Oc4ccc(-c5nc6ccc(C(=N)NC(C)C)cc6[nH]5)cc4)cc3)[nH]c2c1` [Compound AZ] are 0.04 µM and 0.55 µM.
For `CC(C)NC(=N)c1ccc2nc(-c3ccc(Oc4ccc(-c5nc6ccc(C(=N)NC(C)C)cc6[nH]5)cc4C#N)c(F)c3)[nH]c2c1` [X, 2-(3-Cyano-4-(2-fluoro-4-(6-(N-isopropylcarbamimidoyl)-1H-benzo[d]imidazol-2-yl)phenoxy)phenyl)-N-isopropyl-1H-benzo[d]imidazole-6-carboximidamide], in that order: 0.1 µM and 0.62 µM.
On the same counts, the results for `CC(C)NC(=N)c1ccc2nc(-c3ccc(Oc4c(F)cc(-c5nc6ccc(C(=N)NC(C)C)cc6[nH]5)cc4F)cc3)[nH]c2c1` [W, 2-(3,5-Difluoro-4-(4-(6-(N-isopropylcarbamimidoyl)-1H-benzo[d]imidazol-2-yl)phenoxy)phenyl)-N-isopropyl-1H-benzo[d]imidazole-6-carboximidamide] are 0.29 µM and 33.3 µM.
For the compound `Oc1cccc(-c2nc3ccc(-c4nc5ccc(C6=NCCCCN6)cc5[nH]4)cc3[nH]2)c1` [AO, 3-(6-(4,5,6,7-tetrahydro-1H-1,3-diazepin-2-yl)-1H,3′H-[2,5′-bibenzo[d]imidazol]-2′-yl)phenol], the IC50 in assay [1] (trophozoites, n = 2) amounted to 0.25 µM; in assay [2] (setting [3]), 2.96 µM.
On the same counts, the results for `CC(C)NC(=N)c1ccc2nc(-c3ccc(Oc4ccc(-c5nc6ccc(C(=N)NC(C)C)cc6[nH]5)c(Cl)c4)c(C#N)c3)[nH]c2c1` [AA, 2-(2-Chloro-4-(2-cyano-4-(6-(N-isopropylcarbamimidoyl)-1H-benzo[d]imidazol-2-yl)phenoxy)phenyl)-N-isopropyl-1H-benzo[d]imidazole-6-carboximidamide] are 0.06 µM and 0.73 µM.
On the same counts, the results for `COc1cc(Oc2ccc(-c3nc4ccc(C(=N)NC(C)C)cc4[nH]3)cc2C#N)ccc1-c1nc2ccc(C(=N)NC(C)C)cc2[nH]1` [Z, 2-(3-Cyano-4-(4-(6-(N-isopropylcarbamimidoyl)-1H-benzo[d]imidazol-2-yl)-3-methoxyphenoxy)phenyl)-N-isopropyl-1H-benzo[d]imidazole-6-carboximidamide] are 0.28 µM and 1.87 µM.
For `CC(C)NC(=N)c1ccc2nc(-c3ccc(Nc4ccc(-c5nc6ccc(C(=N)NC(C)C)cc6[nH]5)cc4)cc3)[nH]c2c1` [Compound AY], in that order: 0.04 µM and 5.99 µM.
